Experimental data: patent US7855228B2, “Antibiotics targeting MreB” (The Board of Trustees of the Leland Stamford Junior …, priority 2005, dated 2010)
Values after ≈ are worked out from the molar mass of the structure shown.

Tests used:
[1] = system: E. coli MG1655; experiment: Determination of minimum inhibitory concentration (MIC); type: cell-based; conditions: Escherichia coli, MG1655, Example 2; methods as in Example 1; read-out: MIC E. coli
Method: (§1) Determination of minimum inhibitory concentration (MIC). MICs were also determined on Mueller Hinton agar plates (0.2% beef extract, 1.75% acid digest of casein, 0.15% soluble starch, 1.5% agar, pH 7.3).
(§2) Determination of MIC Minimal inhibitory concentrations (MICs) were determined using a standard 2-fold serial dilution format on L agar plates. Ten microliters of stationary culture diluted in 0.85% NaCl to 10^6 cells/ml were spotted on per plate. […] MICs were also determined on Mueller Hinton agar plates (0.2% beef extract, 1.75% acid digest of casein, 0.15% soluble starch, 1.5% agar, pH 7.3).

[2] = system: P. putida NBRC14164; experiment: as above; type: cell-based, Pseudomonas putida; conditions: Pseudomonas putida, NBRC14164, Example 2; methods as in Example 1; read-out: MIC P. putida
Method: as §1, §2

[3] = system: S. typhimurium NBRC13245; experiment: as above; type: cell-based, Salmonella typhimurium; conditions: Salmonella enterica, Example 2; methods as in Example 1; read-out: MIC S. typhimurium
Method: as §1, §2

[4] = system: B. subtilis 168; experiment: as above; type: cell-based, Bacillus subtilis; conditions: Bacillus subtilis, 168, Example 2; methods as in Example 1; read-out: MIC B. subtilis
Method: as §1, §2

[5] = system: S. aureus subsp. aureus NBRC15035; experiment: as above; type: cell-based, Staphylococcus aureus; conditions: Staphylococcus aureus, NBRC15035, Example 2; methods as in Example 1; read-out: MIC S. aureus
Method: as §1, §2

[6] = system: E. coli MG1655; experiment: Microscopic observation of cell shape; type: cell-based; conditions: Example 2; methods as in Example 1
Method: Microscopic observation. E. coli K-12 strain MG1655 (F^− λ^−) was grown in Lennox broth containing 1% Polypepton, 0.5% yeast extract, 0.5% NaCl, and 0.1% glucose (pH 7.2). Cells spread on a slide glass were treated with methanol for 5 min and covered with poly-L-lysine. The fixed cells were observed by the differential interference contrast system through an Axioskop 2 microscope (Carl Zeiss Co., Ltd., Oberkochen, Germany). To observe the anucleate cells, cells were stained with a 4′,6-diamidino-2-phenylindole (DAPI) solution (5 μg/ml in saline) and then observed by the fluorescence phase-contrast combined method.
The effect of each compound on E. coli cell morphology was next examined.

SMILES	MIC [1] [µg/mL]	MIC [2] [µg/mL]	MIC [3] [µg/mL]	MIC [4] [µg/mL]	MIC [5] [µg/mL]	Shape [6]
CN(C)[C@@H]1C(O)=C(C(N)=O)C(=O)[C@@]2(O)C(O)=C3C(=O)c4c(O)cccc4[C@@](C)(O)C3CC12 (stereo partly drawn) [TC, reference compound]						Rod
N=C(N)SCc1c(Cl)cccc1Cl [2,6-Cl]	12.5 (≈ 53.2 µM)	> 100	25 (≈ 106 µM)	> 100	> 100	Sphere
N=C(N)SCc1ccc(F)c(F)c1 [3,4-F]	12.5 (≈ 61.8 µM)	> 100	25 (≈ 124 µM)	25 (≈ 124 µM)	100 (≈ 494 µM)	Sphere
N=C(N)SCc1ccc(Cl)nc1 [4-Cl Pyr]	100 (≈ 496 µM)	> 100	> 100	> 100	> 100	Sphere
N=C(N)SCc1cc(Cl)ccc1Cl [2,5-Cl]	12.5 (≈ 53.2 µM)	> 100	25 (≈ 106 µM)	> 100	> 100	Sphere
N=C(N)SCc1cc(F)c(Cl)cc1Cl [2,4-Cl 5-F, S-(2,4-Dichloro, and 5-fluoro-benzyl)-isothiourea]	0.78 (≈ 3.08 µM)	> 100	12.5 (≈ 49.4 µM)	12.5 (≈ 49.4 µM)	> 100	Sphere
N=C(N)SCc1ccccc1C(F)(F)F [Compound 2-CF3]	> 100	> 100	> 100	> 100	> 100	Sphere
N=C(N)SCc1c(F)cccc1F [2,6-F]	50 (≈ 247 µM)	> 100	50 (≈ 247 µM)	> 100	> 100	Sphere
N=C(N)SCc1ccc(Cl)cc1Cl [2,4-Cl, S-(2,4-Dichloro-benzyl)-isothiourea]	1.56 (≈ 6.63 µM)	> 100	1.56 (≈ 6.63 µM)	> 100	> 100	Sphere
N=C(N)SCc1c(F)c(F)c(F)c(F)c1F [pentaF]	> 100	> 100	> 100	> 100	> 100	Sphere
N=C(N)SCc1cc(Cl)cc(Cl)c1 [3,5-Cl]	> 100	> 100	> 100	> 100	> 100	Sphere
N=C(N)SCc1cccc(C(F)(F)F)c1 [Compound 3-CF3]	> 100	> 100	> 100	> 100	> 100	Sphere
I.Nc1nc(-c2ccccc2)cs1 [TZ, reference compound]	> 100	> 100	> 100	> 100	> 100	Rod
N=C(N)SCc1cccc(Cl)c1 [Compound 3-Cl]	50 (≈ 249 µM)	> 100	> 100	50 (≈ 249 µM)	> 100	Sphere
N=C(N)SCc1cccc(F)c1 [Compound 3-F]	50 (≈ 271 µM)	> 100	> 100	50 (≈ 271 µM)	> 100	Sphere
CC1CN(c2c(F)c(N)c3c(=O)c(C(=O)O)cn(C4CC4)c3c2F)CC(C)N1 (stereo not drawn) [SPFX, reference compound]	0.0244 (≈ 0.0622 µM)	0.391 (≈ 0.996 µM)	0.0488 (≈ 0.124 µM)	0.0244 (≈ 0.0622 µM)	0.0488 (≈ 0.124 µM)	
N=C(N)SCc1ccccc1F [Compound 2-F]	25 (≈ 136 µM)	> 100	25 (≈ 136 µM)	> 100	> 100	Sphere
N=C(N)SCc1c(Cl)cc(Cl)cc1Cl [2,4,6-Cl]	100 (≈ 371 µM)	> 100	> 100	100 (≈ 371 µM)	> 100	Sphere

More lines, main results first:

MIC [1] [µg/mL]	MIC [2] [µg/mL]	MIC [3] [µg/mL]	MIC [4] [µg/mL]	MIC [5] [µg/mL]	SMILES	Shape [6]
3.13 (≈ 12.8 µM)	> 100	6.25 (≈ 25.5 µM)	> 100	> 100	N=C(N)SCc1ccc(Br)cc1 [Compound 4-Br, S-(4-Bromo-benzyl)-isothiourea]	Sphere
25 (≈ 139 µM)	> 100	50 (≈ 277 µM)	> 100	> 100	Cc1ccc(CSC(=N)N)cc1 [Compound 4-CH3, S-(4-methyl-benzyl)-isothiourea]	Sphere
> 100	> 100	> 100	> 100	> 100	COc1ccc(CSC(=N)N)cc1 [Compound 4-MeO]	Sphere
6.25 (≈ 19.3 µM)	50 (≈ 155 µM)	6.25 (≈ 19.3 µM)	3.13 (≈ 9.69 µM)	12.5 (≈ 38.7 µM)	O=C(N[C@H](CO)[C@H](O)c1ccc([N+](=O)[O-])cc1)C(Cl)Cl [CP, reference compound]	Rod
12.5 (≈ 62.3 µM)	> 100	25 (≈ 125 µM)	> 100	> 100	N=C(N)SCc1ccccc1Cl [Compound 2-Cl]	Sphere
25 (≈ 106 µM)	> 100	25 (≈ 106 µM)	100 (≈ 425 µM)	25 (≈ 106 µM)	N=C(N)SCc1cccc(Cl)c1Cl [2,3-Cl]	Sphere
50 (≈ 156 µM)	> 100	12.5 (≈ 39 µM)	0.0122 (≈ 0.0381 µM)	0.0977 (≈ 0.305 µM)	CC1(C)S[C@@H]2[C@H](NC(=O)c3ccccc3)C(=O)N2[C@H]1C(=O)O [PCG, reference compound]	Fil
50 (≈ 213 µM)	> 100	> 100	> 100	> 100	N=C(N)SCc1ccc(C(F)(F)F)cc1 [Compound 4-CF3, S-(4-Trifluoromethyl-benzyl)-isothiourea]	Sphere
25 (≈ 118 µM)	> 100	50 (≈ 237 µM)	25 (≈ 118 µM)	> 100	N=C(N)SCc1ccc([N+](=O)[O-])cc1 [Compound 4-NO2, S-(4-Nitro-benzyl)-isothiourea]	Sphere
12.5 (≈ 42.8 µM)	> 100	25 (≈ 85.6 µM)	> 100	> 100	N=C(N)SCc1ccc(I)cc1 [Compound 4-I, S-(4-Iodo-benzyl)-isothiourea]	Sphere
12.5 (≈ 67.8 µM)	> 100	12.5 (≈ 67.8 µM)	50 (≈ 271 µM)	100 (≈ 543 µM)	N=C(N)SCc1ccc(F)cc1 [Compound 4-F, S-(4-Fluoro-benzyl)-isothiourea]	Sphere
3.13 (≈ 8.96 µM)	> 100	1.56 (≈ 4.46 µM)	0.0488 (≈ 0.14 µM)	0.195 (≈ 0.558 µM)	CC1(C)S[C@@H]2[C@H](NC(=O)C(N)c3ccccc3)C(=O)N2[C@H]1C(=O)O (stereo partly drawn) [ABPC, reference compound]	Fil
50 (≈ 204 µM)	> 100	50 (≈ 204 µM)	> 100	> 100	N=C(N)SCc1ccccc1Br [Compound 2-Br]	Sphere
